What was measured:
Format in all cases: cell-based
[1] = tested on: ALL cell lines; test: Ex vivo cytotoxicity in ALL cell lines (summary); conditions: Homo sapiens
Experimental: (§1) Leukemia cell lines were suspended in RPMI medium supplemented with FBS (Biosera), while ALL PDX cells were cultured in QBSF medium (Quality Biological Inc.,) supplemented with Flt-3 ligand (20 ng/ml, BioNovus Life Sciences) or IL7 (10-20 ng/ml, Jomar Life Research). Cells were inoculated according to the optimal cell density and incubated for 3h or overnight (37° C., 5% CO2). PDX cells and leukemia cell lines were treated with OBI-3424 ([…]) or medium control for 48 or 72 h, respectively. Viability was determined using Alamar Blue reduction assay or Cell Titer-Glo Luminescent Cell Viability Assay (Promega). The half-maximal inhibitory concentration (IC50) was used to calculate the interpolation of nonlinear regression curves by GraphPad Prism 7 software.
(§2) The expression levels of AKR1C3 protein was determined by Western blot analysis. The ex vivo cytotoxicity of OBI-3424 was determined using CellTiter-Glo assay and calculated as 50% maximum inhibitory concentration (IC50).

[2] = tested on: TALL-1 cell line; test: Ex vivo cytotoxicity assay, leukemia cell lines; conditions: Homo sapiens
Experimental: as §1, §2

[3] = tested on: P116 cell line; test: Ex vivo cytotoxicity assay, leukemia cell lines; conditions: Homo sapiens
Experimental: as §1, §2

[4] = tested on: Mono-Mac-6 cell line; test: Ex vivo cytotoxicity assay, leukemia cell lines; conditions: Homo sapiens; Table 5: Mono-Mac-6, AML-M5, 72 h; AKR1C3 expression Low
Experimental: as §1, §2

[5] = tested on: GR-ST cell line; test: Ex vivo cytotoxicity assay, leukemia cell lines; conditions: Homo sapiens, B-ALL (transfected with G-CSF)
Experimental: as §1, §2

[6] = tested on: KG-1 cell line; test: Ex vivo cytotoxicity assay, leukemia cell lines; conditions: Homo sapiens; Table 5: KG-1, Erythroleukemia, 72 h; AKR1C3 expression High
Experimental: as §1, §2

[7] = tested on: NOMO-1 cell line; test: Ex vivo cytotoxicity assay, leukemia cell lines; conditions: Homo sapiens, AKR1C3 expression Medium
Experimental: as §1, §2

[8] = tested on: P31/FUJ cell line; test: Ex vivo cytotoxicity assay, leukemia cell lines; conditions: Homo sapiens; Table 5: P31/FUJ, AML, 72 h; AKR1C3 expression Low
Experimental: as §1, §2

[9] = tested on: CCRF-CEM cell line; test: Ex vivo cytotoxicity assay, leukemia cell lines; conditions: Homo sapiens
Experimental: as §1, §2

[10] = tested on: K-562 cell line; test: Ex vivo cytotoxicity assay, leukemia cell lines; conditions: Homo sapiens, K562; Table 5: K-562, CML, 72 h; AKR1C3 expression Low
Experimental: as §1, §2

[11] = tested on: THP-1 cell line; test: Ex vivo cytotoxicity assay, leukemia cell lines; conditions: Homo sapiens; Table 5: THP-1, AML (pediatric), 72 h; AKR1C3 expression Low
Experimental: as §1, §2

[12] = tested on: SUP-T1 cell line; test: Ex vivo cytotoxicity assay, leukemia cell lines; conditions: Homo sapiens
Experimental: as §1, §2

[13] = tested on: P30/OHK cell line; test: Ex vivo cytotoxicity assay, leukemia cell lines; conditions: Homo sapiens; Table 5: P30/OHK, T-ALL (pediatric), 72 h; AKR1C3 expression Low
Experimental: as §1, §2

[14] = tested on: Jurkat cell line; test: Ex vivo cytotoxicity assay, leukemia cell lines; conditions: Homo sapiens
Experimental: as §1, §2

[15] = tested on: Jurkat, clone E6-1 cell line; test: Ex vivo cytotoxicity assay, leukemia cell lines; conditions: Homo sapiens
Experimental: as §1, §2

[16] = tested on: ATN-1 cell line; test: Ex vivo cytotoxicity assay, leukemia cell lines; conditions: Homo sapiens; Table 5: ATN-1, T-ALL (adult), 72 h; AKR1C3 expression Low
Experimental: as §1, §2

[17] = tested on: MOLT-4 cell line; test: Ex vivo cytotoxicity assay, leukemia cell lines; conditions: Homo sapiens
Experimental: as §1, §2

[18] = tested on: Reh cell line; test: Ex vivo cytotoxicity assay, leukemia cell lines; conditions: Homo sapiens
Experimental: as §1, §2

[19] = tested on: Kasumi-1 cell line; test: Ex vivo cytotoxicity assay, leukemia cell lines; conditions: Homo sapiens; Table 5: Kasumi-1, AML, 72 h; AKR1C3 expression Low
Experimental: as §1, §2

[20] = tested on: TF-1 cell line; test: Ex vivo cytotoxicity assay, leukemia cell lines; conditions: Homo sapiens; Table 5: TF-1, Erythroleukemia, 72 h; AKR1C3 expression Medium
Experimental: as §1, §2

[21] = tested on: PF-382 cell line; test: Ex vivo cytotoxicity assay, leukemia cell lines; conditions: Homo sapiens
Experimental: as §1, §2

C[C@H](OP(=O)(N1CC1)N1CC1)c1ccc([N+](=O)[O-])c(Oc2cccc(C(=O)N(C)C)c2)c1 [OBI-3424]
IC50 ([1]; 6 types of cell lines expressing high (strong) levels of AKR1C3): 0.003 to 0.03 µM | IC50 ([1]; cell lines with medium AKR1C3 expression levels): 0.003 to 0.084 µM | IC50 ([2]; Table 4: TALL-1, T-ALL (child), AKR1C3 expression Strong, CellTiter-Glo): 0.03 µM | IC50 ([2]; Table 5: TALL-1, T-ALL (pediatric), 72 h, AKR1C3 expression Medium): 0.03 µM | IC50 ([3]; Table 4: P116, T-ALL (Jurkat mutant), AKR1C3 expression Medium, CellTiter-Glo): 0.084 µM | IC50 ([3]; Table 5: P116, Jurkat mutant, 72 h, AKR1C3 expression Low): 0.084 µM | IC50 [4]: 0.0298 µM | IC50 ([5]; Table 4: GR-ST, AKR1C3 expression Strong, CellTiter-Glo): 0.0099 µM | IC50 ([5]; Table 5: GR-ST, 72 h, AKR1C3 expression Medium): 0.0099 µM | IC50 [6]: 0.153 µM | IC50 ([7]; Table 4: NOMO-1, AML (acute monocytic), CellTiter-Glo): 0.011 µM | IC50 ([7]; Table 5: NOMO-1, T-ALL (adult), 72 h): 0.011 µM | IC50 [8]: > 1 µM | IC50 ([9]; Table 4: CCRF-CEM, T-ALL (child), AKR1C3 expression Strong, CellTiter-Glo): 0.0037 µM | IC50 ([9]; Table 5: CCRF-CEM, T-ALL, 72 h, AKR1C3 expression High): 0.0037 µM | IC50 [10]: > 1 µM | IC50 [11]: > 1 µM | IC50 ([12]; Table 4: SUP-T1, T-ALL (child), AKR1C3 expression Strong, CellTiter-Glo): 0.003 µM | IC50 ([12]; Table 5: SUP-T1, T-ALL (pediatric), 72 h, AKR1C3 expression Medium): 0.003 µM | IC50 [13]: > 1 µM | IC50 ([14]; Table 4: Jurkat, T-ALL (child), AKR1C3 expression Medium, CellTiter-Glo): 0.04 µM | IC50 ([14]; Table 5: Jurkat, T-ALL (pediatric), 72 h, AKR1C3 expression Low): 0.04 µM | IC50 ([15]; Table 4: Jurkat, Clone E6-1, T-ALL (child), AKR1C3 expression Medium, CellTiter-Glo): 0.024 µM | IC50 ([15]; Table 5: Jurkat, clone E6-1, T-ALL, 72 h, AKR1C3 expression Low): 0.024 µM | IC50 [16]: > 1 µM | IC50 ([17]; Table 4: MOLT-4, T-ALL, AKR1C3 expression Strong, CellTiter-Glo): 0.01 µM | IC50 ([17]; Table 5: MOLT-4, T-ALL, 72 h, AKR1C3 expression Medium): 0.01 µM | IC50 ([18]; Table 4: Reh, BCP-ALL, AKR1C3 expression Medium, CellTiter-Glo): 0.003 µM | IC50 ([18]; Table 5: Reh, ALL (non-T, non-B), 72 h, AKR1C3 expression Low): 0.003 µM | IC50 [19]: > 1 µM | IC50 [20]: 0.0028 µM | IC50 ([21]; Table 4: PF-382, T-ALL (child), AKR1C3 expression Strong, CellTiter-Glo): 0.015 µM | IC50 ([21]; Table 5: PF-382, T-ALL (pediatric), 72 h, AKR1C3 expression Medium): 0.015 µM
